Laboratory results as given in US10745395B2, “Compounds for their use as drugs for the treatment and/or the prevention of infection(s) caused by biofilm-forming bacteria” (CENTRE NATIONAL DE LA RECHERCHE SCIENTIFIQUE, priority 2014, dated 2020).

Key:
Assay in all cases: Antibiotic susceptibility test, disk diffusion (EUCAST)
Format in all cases: cell-based, Pseudomonas aeruginosa
Set-up in all cases: key: R means resistant to the antibiotic; S means sensitive to the antibiotic
Conditions in all cases: disk load given per antibiotic
[1] = system: P. aeruginosa strain PAR 20
Protocol: (§1) All tests were performed on Pseudomonas aeruginosa strains coded: PAR 5, PAR 20, PAR 50, isolated from suppurated wounds of three male patients with chronic diabetic foot infections.
(§2) Drug resistance of the P. aeruginosa strains were tested using the disk diffusion method. Interpretation of the drug resistance of the Pseudomonas aeruginosa strains was done in accordance with the EUCAST standards (see the reference below for more information): http://www.eucast.org/fileadmin/src/media/PDFs/EUCAST_files/Breakpoint tables/Breakpoint_table_v_3.1.pdf.
(§3) To determine the drug resistance of the strains, the following antibiotics were used: amikacin, ciprofloxacin, gentamicin, piperacillin, tobramycin, ceftazidime (Oxoid, Basingstoke, UK). R means resistant to the antibiotic and S means sensitive to the antibiotic.

[2] = system: P. aeruginosa strain PAR 50
Protocol: as §1, §2, §3

[3] = system: P. aeruginosa strain PAR 5
Protocol: as §1, §2, §3

Compound | Antibiotic susceptibility (according to EUCAST) [1] | Antibiotic susceptibility (according to EUCAST) [2] | Antibiotic susceptibility (according to EUCAST) [3]
NCC[C@H](O)C(=O)N[C@@H]1C[C@H](N)[C@@H](O[C@H]2O[C@H](CN)[C@@H](O)[C@H](O)[C@H]2O)[C@H](O)[C@H]1O[C@H]1O[C@H](CO)[C@@H](O)[C@H](N)[C@H]1O [Amikacin] | S | R | S
CC(C)(O/N=C(\C(=O)N[C@@H]1C(=O)N2C(C(=O)[O-])=C(C[n+]3ccccc3)CS[C@H]12)c1csc(N)n1)C(=O)O [Ceftazidime] | S | S | R
O=C(O)c1cn(C2CC2)c2cc(N3CCNCC3)c(F)cc2c1=O [Ciprofloxacin] | S | S | S
CCN1CCN(C(=O)N[C@@H](C(=O)N[C@@H]2C(=O)N3[C@@H]2SC(C)(C)[C@@H]3C(=O)O)c2ccccc2)C(=O)C1=O [Piperacillin] | S | R | S
NC[C@H]1O[C@H](O[C@H]2[C@H](O)[C@@H](O[C@H]3O[C@H](CO)[C@@H](O)[C@H](N)[C@H]3O)[C@H](N)C[C@@H]2N)[C@H](N)C[C@@H]1O [Tobramycin] | S | R | S
Gentamicin | S | R | S
